Molecular target: T1, TrkB (Rattus norvegicus, UniProt Q63604)
T1 construct: PHR domain (1-498 a.a.) of Arabidopsis CRY2 (NM_100320); expressed in transfected cells; host or cells: HeLa; the other entry of the earlier key: CRY2 (Q96524, Cryptochrome-2)
Assay: Light-induced calcium signaling after treatment with TrkB-specific inhibitor (R-GECO imaging)
Type: cell-based
Settings: 100 nM K252a; HeLa cells co-transfected with TrkB-PHR-YFP and R-GECO; 488 nm light
Source text: The present inventors observed whether sub-RTK signaling was activated by light irradiation after treating a RTK-specific inhibitor in order to confirm that only RTK-specific signaling pathways are activated by light irradiation affecting downstream pathways thereof.
The present inventors used TrkB-PHR-YFP construct prepared in the example 1-1 as an example to investigate the activation of TRK signal transduction. In addition, the present inventors used R-GECO construct (Addgene, plasmid 32444; CMV-R-GECO1) to investigate whether calcium signaling among downstream signaling pathways of RTK is activated by light irradiation. Particularly, HeLa cells were co-transfected with the TrkB-PHR-YFP construct prepared in the example 1-1 and R-GECO construct and cultured in DMEM media containing 10% FBS in the condition of 37° C. and 10% CO2. The cultivated cells were treated with 100 nM of K252a known as a TrkB-specific inhibitor and images taken with a confocal microscope before and after the irradiation with light having 488 nm of wavelength were obtained and analyzed (FIG. 6). As a result, it was observed that there is no difference in the experimental group treated with K252a. On the contrary, the calcium signaling was changed according to light irradiation in the control group.

T1 sequence (Q63604 with tags, fused parts or gaps): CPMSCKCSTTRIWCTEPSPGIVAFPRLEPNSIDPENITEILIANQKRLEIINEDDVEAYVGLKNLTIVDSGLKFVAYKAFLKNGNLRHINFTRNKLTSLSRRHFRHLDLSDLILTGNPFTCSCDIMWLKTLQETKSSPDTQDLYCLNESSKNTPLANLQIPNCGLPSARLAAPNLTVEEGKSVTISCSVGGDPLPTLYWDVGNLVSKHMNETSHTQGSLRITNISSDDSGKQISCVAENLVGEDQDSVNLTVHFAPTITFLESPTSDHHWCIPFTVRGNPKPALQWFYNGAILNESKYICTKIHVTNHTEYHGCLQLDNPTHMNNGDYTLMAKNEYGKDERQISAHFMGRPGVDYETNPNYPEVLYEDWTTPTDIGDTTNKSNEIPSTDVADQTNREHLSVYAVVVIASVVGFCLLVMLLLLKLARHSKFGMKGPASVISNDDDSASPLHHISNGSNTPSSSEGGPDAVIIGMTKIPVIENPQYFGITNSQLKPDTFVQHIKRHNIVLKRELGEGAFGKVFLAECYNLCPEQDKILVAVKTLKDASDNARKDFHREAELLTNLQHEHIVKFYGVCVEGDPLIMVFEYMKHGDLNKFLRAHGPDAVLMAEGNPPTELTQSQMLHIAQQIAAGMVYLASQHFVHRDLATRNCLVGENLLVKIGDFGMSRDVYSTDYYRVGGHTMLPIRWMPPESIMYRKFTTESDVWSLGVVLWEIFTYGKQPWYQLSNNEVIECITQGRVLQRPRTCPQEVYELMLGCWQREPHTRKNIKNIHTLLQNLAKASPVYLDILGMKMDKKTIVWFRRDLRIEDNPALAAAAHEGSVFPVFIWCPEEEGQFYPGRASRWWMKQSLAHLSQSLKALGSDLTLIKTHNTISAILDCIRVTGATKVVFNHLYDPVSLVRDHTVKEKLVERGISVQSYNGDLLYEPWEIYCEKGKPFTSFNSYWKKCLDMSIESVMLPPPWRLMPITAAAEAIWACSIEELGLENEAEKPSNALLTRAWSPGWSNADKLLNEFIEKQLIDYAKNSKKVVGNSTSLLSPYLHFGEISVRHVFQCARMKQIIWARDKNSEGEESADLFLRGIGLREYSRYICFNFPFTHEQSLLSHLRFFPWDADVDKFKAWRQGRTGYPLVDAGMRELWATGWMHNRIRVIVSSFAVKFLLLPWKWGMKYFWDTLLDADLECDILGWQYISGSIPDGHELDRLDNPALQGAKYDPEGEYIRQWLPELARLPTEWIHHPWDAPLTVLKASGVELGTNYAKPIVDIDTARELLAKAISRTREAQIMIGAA

Q: `COC(=O)[C@@]1(O)C[C@H]2O[C@]1(C)n1c3ccccc3c3c4c(c5c6ccccc6n2c5c31)C(=O)NC4` [K252a] was tested. Which “change of calcium signaling according to light irradiation” value did it give?
A: no difference

From patent US20150203837A1, “FUSION PROTEIN FOR ACTIVATING RTK SIGNAL TRANSMISSION BY MEANS OF LIGHT, AND USE THEREOF” (KOREA ADVANCED INSTITUTE OF SCIENCE AND TECHNOLOGY, priority 2012, published 2015)
